Source: patent US20100069460A1, “1-PHENYL 1-THIO-D-GLUCITOL DERIVATIVE” (TAISHO PHARMACEUTICAL CO., LTD., priority 2006, published 2010)

Experiments:
db/db mice = experiment: Confirmation test for hypoglycemic effect in db/db mice; format: in vivo; settings: oral gavage, 1 mg/10 mL suspension at 10 mL/kg, decrease in blood glucose AUC (0 to 8 hours) relative to control group
Description: The laboratory animals used were db/db mice (CLEA Japan, Inc., male, 7 weeks of age). A test substance was suspended in a 0.5% aqueous carboxymethylcellulose (CMC) solution and adjusted to a concentration of 1 mg/10 mL. On the day of the test, the db/db mice were divided into groups of 6 animals each, such that differences in the mean values and variance of their blood glucose levels were minimized, according to the procedures for blood collection and blood glucose measurement described later. The mice were measured for their body weight. Then, the test substance suspension was administered by oral gavage using a probe for oral administration at a volume of 10 mL/kg. The control group received a 0.5% aqueous CMC solution alone. Blood was collected at 8 points in total: before administration of the test substance (0 hour) and 0.5, 1, 2, 4, 6, 8 and 24 hours after oral administration. The test was performed under ad libitum feeding and drinking conditions.
Blood was collected from the orbital venous sinus of each animal under ether anesthesia using a heparin-coated blood collection tube and measured for its blood glucose level with a Glucose CII-Test Wako (Wako Pure Chemical Industries, Ltd., Japan). To determine the intensity (%) of hypoglycemic effect, casual blood glucose levels measured between 0 and 8 hours in each test group were analyzed by the trapezoidal method to calculate the area under the blood glucose-time curve (AUC). The results are expressed as a decrease in AUC relative to that of the control group.

human SGLT2 = target: T1, human SGLT2 (Homo sapiens, UniProt P31639); experiment: Inhibition test for sodium-dependent sugar uptake in CHO-k1 cells stably expressing human SGLT2; format: cell-based; settings: 1 mM [14C]methyl α-D-glucopyranoside uptake, 37° C., 1 hour
T1 construct: expressed in transfected cells; vector pcDNA3.1+hygro (Invitrogen)
T1 sequence (P31639 1-672): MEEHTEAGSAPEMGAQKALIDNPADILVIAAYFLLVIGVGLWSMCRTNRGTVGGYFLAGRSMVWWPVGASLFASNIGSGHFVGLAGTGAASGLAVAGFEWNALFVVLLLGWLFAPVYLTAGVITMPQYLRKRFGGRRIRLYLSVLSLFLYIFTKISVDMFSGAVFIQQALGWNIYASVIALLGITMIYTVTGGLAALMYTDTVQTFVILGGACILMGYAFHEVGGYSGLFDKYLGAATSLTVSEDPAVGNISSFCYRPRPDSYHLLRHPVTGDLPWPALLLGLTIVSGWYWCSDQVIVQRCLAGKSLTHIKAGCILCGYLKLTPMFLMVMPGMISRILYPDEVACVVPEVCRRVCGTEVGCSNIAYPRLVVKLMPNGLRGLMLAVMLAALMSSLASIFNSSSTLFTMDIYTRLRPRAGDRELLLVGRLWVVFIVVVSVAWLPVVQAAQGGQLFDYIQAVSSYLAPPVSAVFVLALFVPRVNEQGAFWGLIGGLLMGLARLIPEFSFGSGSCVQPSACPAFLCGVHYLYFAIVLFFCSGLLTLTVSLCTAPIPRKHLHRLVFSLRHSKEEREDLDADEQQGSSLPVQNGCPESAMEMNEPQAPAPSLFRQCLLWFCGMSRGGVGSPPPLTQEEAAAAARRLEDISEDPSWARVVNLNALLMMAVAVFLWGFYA
Description: (§1) A human SGLT1 sequence (NM_000343) was reverse-transcribed and amplified from human small intestine mRNA, and then introduced into pCMV-tag5A (Stratagene). Likewise, a human SGLT2 sequence (NM_003041) was prepared from human kidney mRNA in the same manner and introduced into pcDNA3.1+hygro (Invitrogen). The individual cloned sequences were confirmed to be identical with the sequences reported.
(§2) The human SGLT1 and human SGLT2 expression vectors were each transfected into CHO-k1 cells using lipofectamine 2000 (Invitrogen). The cells were cultured in the presence of 500 μg/mL geneticin (SGLT1) or hygromycin B (SGLT2) to select resistant strains and specific activity of sugar uptake in the system shown below was used as an indicator to obtain SGLT-expressing cells.
(§3) The cells stably expressing human SGLT1 or human SGLT2 were used for an inhibition test of sodium-dependent sugar uptake activity.
(§4) The cells were incubated for 20 minutes in 1 mL pretreatment buffer (140 mM choline chloride, 2 mM KCl, 1 mM CaCl2, 1 mM MgCl2, 10 mM HEPES/5 mM Tris, pH 7.4). The pretreatment buffer was removed and replaced with 200 μL uptake buffer containing a test compound (methyl α-D-glucopyranoside (containing [^14C]methyl α-D-glucopyranoside) at 0.1 mM for SGLT1 inhibition and 1 mM for SGLT2 inhibition, 140 mM NaCl, 2 mM KCl, 1 mM CaCl2, 1 mM MgCl2, 10 mM HEPES/5 mM Tris, pH 7.4). Uptake reaction was performed at 37° C. for 30 minutes (SGLT1) or 1 hour (SGLT2). After the reaction, the cells were washed twice with 1 mL washing buffer (10 mM methyl α-D-glucopyranoside, 140 mM choline chloride, 2 mM KCl, 1 mM CaCl2, 1 mM MgCl2, 10 mM HEPES/5 mM Tris, pH 7.4), and then dissolved in a 0.2 M NaOH solution (400 μL). Aquazol 2 (Perkin Elmer) was added and mixed well with each sample, followed by measurement of radioactivity using a liquid scintillation counter (Beckman Coulter) to calculate the amount of sugar uptake. For the control group, uptake buffer containing no test compound was prepared. Moreover, another uptake buffer containing choline chloride instead of NaCl was also prepared for basal uptake.
(§5) Test compounds prepared at 6 appropriate concentrations were used to measure the amount of sugar uptake, and their concentrations required for 50% inhibition of the amount of sugar uptake were calculated as IC50 values, assuming that the amount of sugar uptake in the control group was set to 100%.

human SGLT1 = target: T2, human SGLT1 (Homo sapiens, UniProt P13866); experiment: Inhibition test for sodium-dependent sugar uptake in CHO-k1 cells stably expressing human SGLT1; format: cell-based; settings: 0.1 mM [14C]methyl α-D-glucopyranoside uptake, 37° C., 30 minutes
T2 construct: expressed in transfected cells; vector pCMV-tag5A (Stratagene)
T2 sequence (P13866 1-664): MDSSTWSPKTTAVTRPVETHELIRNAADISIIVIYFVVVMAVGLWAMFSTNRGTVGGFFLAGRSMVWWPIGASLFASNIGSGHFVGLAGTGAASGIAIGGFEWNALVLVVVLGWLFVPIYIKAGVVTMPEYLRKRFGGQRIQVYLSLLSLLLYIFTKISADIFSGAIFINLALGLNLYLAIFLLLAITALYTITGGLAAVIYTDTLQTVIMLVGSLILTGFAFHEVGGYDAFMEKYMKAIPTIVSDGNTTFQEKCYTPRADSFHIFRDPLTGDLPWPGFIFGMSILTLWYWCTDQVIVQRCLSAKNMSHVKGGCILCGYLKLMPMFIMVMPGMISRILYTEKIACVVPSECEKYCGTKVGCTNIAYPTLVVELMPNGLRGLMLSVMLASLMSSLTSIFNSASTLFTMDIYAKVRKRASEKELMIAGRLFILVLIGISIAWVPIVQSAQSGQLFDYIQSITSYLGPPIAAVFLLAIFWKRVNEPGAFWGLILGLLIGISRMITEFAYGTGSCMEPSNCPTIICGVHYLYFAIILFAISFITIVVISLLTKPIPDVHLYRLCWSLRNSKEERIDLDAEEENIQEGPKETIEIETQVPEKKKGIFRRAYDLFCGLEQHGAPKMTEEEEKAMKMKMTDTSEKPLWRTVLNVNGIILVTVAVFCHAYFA
Description: as §1, §2, §3, §4, §5

Row | Structure (SMILES) | IC50 (human SGLT2) [nM] | IC50 (human SGLT1) [nM] | Intensity of hypoglycemic effect (db/db mice) [%]
1 | COc1ccc(Cc2cc([C@@H]3S[C@H](CO)[C@@H](O)[C@H](O)[C@H]3O)c(O)cc2C)cc1 [II, (1S)-1,5-anhydro-1-[5-(4-methoxybenzyl)-4-methyl-2-hydroxyphenyl]-1-thio-D-glucitol] | 20 | 32 | 49.7
2 | Cc1ccc(Cc2cc([C@@H]3S[C@H](CO)[C@@H](O)[C@H](O)[C@H]3O)c(O)cc2Cl)cc1 [V, (1S)-1,5-anhydro-1-[4-chloro-2-hydroxy-5-(4-methylbenzyl)phenyl]-1-thio-D-glucitol] | 11 | 19 | –
3 | CCOc1ccc(Cc2cc([C@@H]3S[C@H](CO)[C@@H](O)[C@H](O)[C@H]3O)c(O)cc2C)cc1 [Compound 98, reference compound] | – | – | 35.0
4 | COc1ccc(Cc2cc([C@@H]3S[C@H](CO)[C@@H](O)[C@H](O)[C@H]3O)c(O)cc2Cl)cc1 [VII, (1S)-1,5-anhydro-1-[4-chloro-2-hydroxy-5-(4-methoxybenzyl)phenyl]-1-thio-D-glucitol] | 13 | 33 | –

Further lines, with some results ahead:

Row | IC50 (human SGLT2) [nM] | IC50 (human SGLT1) [nM] | Structure (SMILES) | Intensity of hypoglycemic effect (db/db mice) [%]
5 | 10 | 27 | CSc1ccc(Cc2cc([C@@H]3S[C@H](CO)[C@@H](O)[C@H](O)[C@H]3O)c(O)cc2C)cc1 [Compound IV, (1S)-1,5-anhydro-1-[2-hydroxy-4-methyl-5-[4-(methylsulfanyl)benzyl]phenyl]-1-thio-D-glucitol] | –
6 | 20 | 17 | Cc1ccc(Cc2cc([C@@H]3S[C@H](CO)[C@@H](O)[C@H](O)[C@H]3O)c(O)cc2C)cc1 [Compound I, (1S)-1,5-anhydro-1-[4-methyl-5-(4-methylbenzyl)-2-hydroxyphenyl]-1-thio-D-glucitol] | 48.5
7 | 12 | 32 | CCc1ccc(Cc2cc([C@@H]3S[C@H](CO)[C@@H](O)[C@H](O)[C@H]3O)c(O)cc2C)cc1 [III, (1 S)-1,5-anhydro-1-[5-(4-ethylbenzyl)-2-hydroxy-4-methylphenyl]-1-thio-D-glucitol] | –
8 | 8 | 29 | CCc1ccc(Cc2cc([C@@H]3S[C@H](CO)[C@@H](O)[C@H](O)[C@H]3O)c(O)cc2Cl)cc1 [VI, (1S)-1,5-anhydro-1-[4-chloro-2-hydroxy-5-(4-ethylbenzyl)phenyl]-1-thio-D-glucitol] | –
